Data from patent US6013672A, “Agonists of metabotropic glutamate receptors and uses thereof” (UAB Research Foundation, priority 1997, dated 2000).
Like-named read-outs stand apart in the source and are kept apart here.

Columns and labels:
hippocampal astrocytes [1] = experiment: Intracellular glutamate content [Glu]i of astrocytes; type: cell-based, rat; conditions: for activity at 1000 µM: 24 h, highest dose used (1 mM), chronic treatment
Protocol: For experiments in which [Glu]o concentrations were assessed by the bioluminescence method, cells were maintained in glutamate-depleted medium in the presence or absence of the agonists/antagonist combination of interest. […] After the incubation period, the stimulation media (containing drugs of interest) were aspirated and cells were washed twice with MEM and allowed to remain for 30 to 60 minutes in drug free MEM supplemented with 20 mM glucose prior to taking media samples for glutamate measurements. To assess acute drug effects, untreated cells were washed and the reagent of interest applied in glucose supplemented MEM. Cells were harvested in 0.3 N NaOH and neutralized with 0.3 N HCl. Aliquots were stored in -20° C. for protein and [Glu]i determination. Glutamate standards used for calibration were prepared in MEM (For [Glu]i in 0.15 N NaCl).

hippocampal astrocytes [2] = experiment: Extracellular glutamate [Glu]o released by astrocyte cultures (bioluminescence); type: cell-based, rat; conditions: for activity at 100 µM: read-out: % of control [Glu]0; for effect on [Glu]o / glutamate release: cells treated for 24 hours, then MEM
hippocampal astrocytes [3] = experiment: 3H-D-aspartate (glutamate/aspartate) uptake in astrocytes; type: cell-based, rat; conditions: for effect on aspartate uptake: KA or NMDA 1 mM, 24 hours
Protocol: Uptake procedures were essentially identical to those previously described (Kimelberg et al. 1989; Ye et al., 1996). Briefly, 5-10 minutes before assessing uptake, astrocytes were washed and kept in a solution containing (in mM): NaCl 122, KCl 3, MgSO4 0.4, KH2 PO4 1.2, NaHCO3 25, D-glucose 10, and CaCl2 1.3, at 37° C., bubbled with 5%/95% CO2 /O2. Then the cells were switched to the above solution supplemented with 0.1 mM D-aspartate and 0.4 μCi/ml ^3 H-D-aspartate. Glutamate/aspartate uptake was determined over a 10 or 30 minutes period and was terminated by three quick washes, twice with ice cold 0.29 M sucrose solution with 10 mM Tris Nitrate, 0.5 mM Ca(NO3)2, (pH 7.40 by NaOH) and then with ice cold PBS. Cells were then harvested after a 30 minute incubation in 0.3 N NaOH solution (37° C.) and ^3 H activity was determined in a liquid scintillation counter (Beckman). Total uptake was normalized to protein content to eliminate variability due to cell number. Protein levels were determined using the bicinchoninic acid (BCA) assay (Pierce; Rockford, Ill.).

glial cells = experiment: Glial glutamate uptake and extracellular glutamate with MPTP/MPP+ and t-ACPD; type: cell-based; conditions: for elevations of extracellular glutamate levels: glial cells
Protocol: The normally low glutamate levels in the brain are established and maintained in glial cells by non-vesicular uptake of glutamate through a Na^+ -dependent transporter (FIG. 14). Once taken up, glutamate can be converted to glutamine and recycled for neurotransmitter synthesis in neurons (FIG. 14). If glial cells in culture are exposed to high glutamate concentrations (e.g., 100 μM), they will remove it from the extracellular space and essentially "detoxify" the neuronal environment. […] Under those conditions, extracellular glutamate levels are elevated to 7 μM (FIG. 16), which is toxic to most surrounding neurons.
Impaired glial glutamate transport may contribute to the loss of dopaminergic neurons in Parkinson's disease. Thus, stimulation of this pathway would be neuroprotective. A drug and its receptor on glial cells was identified that allows enhanced glutamate detoxification. Specifically, trans-ACPD (trans-1-amino-1,3-cyclopentane dicarboxylic acid) (t-ACPD), a group II metabotropic glutamate receptor agonist, enhanced glial glutamate uptake (FIG. 17). It's actions were 2-fold; (i) it enhanced glutamate uptake by up to 80%, and (ii) it decreased non-specific release of glutamate, effectively trapping glutamate inside glial cells. In fact, the release of glutamate decreased to such a large extent that it almost made the transporter rectify, e.g. allowing only influx and preventing outflow of glutamate (FIG. 18). […] Using antibodies and further pharmacological studies, the receptor that is responsible for these effects has been identified as mGluR2/3.
In Parkinson's disease, it is believed that neurons may die of excitotoxic exposure to glutamate. The present invention determined that MPTP directly effects glutamate uptake into astrocytes (FIG. 21, top left). […] This increased release may be sufficient to explain some of the subsequent neurodegeneration.

dopaminergic neurons = experiment: Cell death of dopaminergic neurons induced by glutamate or MPTP; type: cell-based, rat; conditions: 0.2 mM
Protocol: Cell death of dopaminergic neurons induced by glutamate, and the role of glial glutamate transport in protection of cell death at the cellular level were studied as it relates to Parkinson's disease. […] Thus, glutamate concentrations as low as 3-5 μM induced rapid cell death (FIGS. 11 and 12). Glutamate concentrations were also measured in the normal brain. They are typically around 1 μM, below the toxic level for dopaminergic neurons. […] This late onset of glutamate toxicity is compatible with the late onset of Parkinson's disease.

With O=C(O)[C@@H]1CN[C@@H](C(=O)O)C1 (relative stereo) [PDC, 1-trans-pyrrolidine-2,4,-dicarboxylate] the cellular glutamate content (hippocampal astrocytes [1]; 70 minutes incubation with 500 μM) was 102.9±12.1 % of control.
With N[C@H](C(=O)O)[C@H](O)C(=O)O (relative stereo) [THA, DL-threo-β-hydroxyaspartate] the “glutamate release induced by transportable uptake inhibitor” value (hippocampal astrocytes [2]; 5-2000 μM in glutamate free MEM, 25 and 70 minutes) was “increased glutamate release from astrocytes in a dose- and time-dependent manner”, the minimal effective concentration (hippocampal astrocytes [2]; Rattus norvegicus, Astrocyte, glutamate free MEM, read-out: concentration giving significant increases in glutamate release) was > 100 µM and the activity at 500 µM (hippocampal astrocytes [1]; Rattus norvegicus, Astrocyte, 70 min, 70 minutes incubation with 500 μM, read-out: cellular glutamate content) was 110 ± 14.7%.
In the case of N[C@]1(C(=O)O)CC[C@H](C(=O)O)C1 [1R3S-ACPD, (1R,3S)-1-aminocyclopentane-1,3-dicarboxylic acid], the minimal effective concentration (hippocampal astrocytes [2]; Rattus norvegicus, Astrocyte, 24 hours treatment, read-out: concentrations required to achieve any significant effect on glutamate release) is reported as > 50 µM, the activity at 1000 µM (hippocampal astrocytes [1]; Rattus norvegicus, Astrocyte) is reported as 18.4 ± 0.9% and the “effect on aspartate uptake” value (hippocampal astrocytes [3]) is reported as “No significant effects”.
In the case of N[C@@]1(C(=O)O)CC[C@@H](C(=O)O)C1 [1S3R-ACPD, (1S,3R)-1-aminocyclopentane-1,3-dicarboxylic acid], the “more effective than 1R3S-ACPD in reducing glutamate release” value (hippocampal astrocytes [2]) is reported as “≈ 100 fold”, the “time to steady-state [Glu]o, acute application” value (hippocampal astrocytes [2]; 50 μM in glutamate-free MEM) is reported as “≈ 2 hours” and the “steady-state [Glu]o, acute application” value (hippocampal astrocytes [2]; 50 μM in glutamate-free, glucose-supplemented MEM) is reported as 0.3 to 0.4 µM. For the same compound, the “THA-induced glutamate release lower in treated cells” value (hippocampal astrocytes [2]; 100 μM for 24 hours pretreatment, any THA concentration) was 3-5 fold, the “swelling induced glutamate release” value (hippocampal astrocytes [2]; 100 μM, 24 h pretreatment, hypotonic 153 mOsm) was “inhibited swelling induced glutamate release to some extent” and the “preincubation time for maximal effects” value (hippocampal astrocytes [2]; 200 μM) was “≈ 14 hours”. The “ET50 of attenuation of [Glu]o versus preincubation time” value (hippocampal astrocytes [2]; 200 μM, preincubation 0.5-36 hours) was “≈ 1 hour”, the “order of potency in mimicking ACPD effect on glutamate release” value (hippocampal astrocytes [2]; FIG. 7B) was “S-4CPG>1S3R-ACPD>L-CCG-I>1S3S-ACPD=QA” and the activity at 200 µM (hippocampal astrocytes [2]; Rattus norvegicus, Astrocyte, 14 h, 200 μM, ≈14 hours preincubation, read-out: [Glu]o levels at maximal effect) was < 30%. The activity at 100 µM (hippocampal astrocytes [2]; Rattus norvegicus, Astrocyte, 408 h, cells P22, 17 days in vitro, 100 μM agonist) was 17.3 ± 1.2%, the activity at 100 µM (hippocampal astrocytes [2]; Rattus norvegicus, Astrocyte, 408 h, cells P22, 17 days in vitro, 200 μM agonist) was 14.8 ± 4.3% and the activity at 100 µM (hippocampal astrocytes [2]; Rattus norvegicus, Astrocyte, 480 h, cells P16, 20 days in vitro, 10 μM agonist) was 32.5 ± 4.7%. It also gave an activity at 100 µM (hippocampal astrocytes [2]; Rattus norvegicus, Astrocyte, 528 h, cells P2, 22 days in vitro, 100 μM agonist) of 73.4 ± 2.9%, an activity at 100 µM (hippocampal astrocytes [2]; Rattus norvegicus, Astrocyte, 528 h, cells P13, 22 days in vitro, 100 μM agonist) of 34.1 ± 5.6% and an activity at 100 µM (hippocampal astrocytes [2]; Rattus norvegicus, Astrocyte, 552 h, cells P9, 23 days in vitro, 100 μM agonist) of 45.8 ± 11.9%. It also gave an activity at 100 µM (hippocampal astrocytes [2]; Rattus norvegicus, Astrocyte, cells P2, 30 days in vitro, 100 μM agonist) of 66.9 ± 9.9%, an activity at 100 µM (hippocampal astrocytes [2]; Rattus norvegicus, Astrocyte, cells P9, 36 days in vitro, 100 μM agonist) of 66.5 ± 6.29% and an activity at 100 µM (hippocampal astrocytes [2]; Rattus norvegicus, Astrocyte, cells P10, 32 days in vitro, 250 μM agonist) of 24.1 ± 7.8%. For the same compound, the activity at 100 µM (hippocampal astrocytes [2]; Rattus norvegicus, Astrocyte, cells P22, 40 days in vitro, 250 μM agonist) was 29 ± 5.4%, the EC50 (hippocampal astrocytes [2]; Rattus norvegicus, Astrocyte, 24 hours treatment, dose-effect curve, read-out: EC50, reduction of glutamate release) was 2 to 5 µM and the “effect on [Glu]o / glutamate release” value (hippocampal astrocytes [2]) was “reduce [Glu]o in a dose-dependent manner”. For the same compound, the activity at 1000 µM (hippocampal astrocytes [1]; Rattus norvegicus, Astrocyte) was 85.2 ± 5.1% and the activation at 500 µM (hippocampal astrocytes [3]; Rattus norvegicus, Astrocyte, 0.5 mM, 24 hour exposure, average of 25 experiments, read-out: glutamate/aspartate uptake enhanced by) was 31 ± 2.7%.
With N[C@@]1(C(=O)O)CC[C@@H](C(=O)O)C1 [ACPD] the “persistence of effects (FIG. 6 Off curve)” value (hippocampal astrocytes [2]) was “over 10 hours”, the “preincubation time for maximal effect (FIG. 6 On curve)” value (hippocampal astrocytes [2]) was > 6 h and the “effect remaining after washout” value (hippocampal astrocytes [2]; 10 hours after ACPD had been washed off) was 50%. The “time for effect to return to control levels after washout” value (hippocampal astrocytes [2]; 24 hours treatment, then ACPD free glutamate-depleted medium) was “about 20 hours”, the “reduction in the steady-state [Glu]o” value (hippocampal astrocytes [2]; astrocytes cultured from animals >P10, on average) was “≈ 5 fold” and the “reduction in the steady-state [Glu]o” value (hippocampal astrocytes [2]; astrocytes cultured from younger animals) was 30-50%. For the same compound, the “ACPD modulation of [Glu]o under disrupted Na+ gradient” value (hippocampal astrocytes [2]; low Na+/high K+, Ouabain or L-AA) was “failed to modulate [Glu]o”, the “dose required for enhancement of uptake” value (hippocampal astrocytes [3]) was “≈ 500 μM” and the “acute effect on uptake” value (hippocampal astrocytes [3]; acute application of up to 3 hours) was “ineffective in enhancing uptake”. For the same compound, the enhancement of uptake (hippocampal astrocytes [3]; astrocytes from animals >P9, n=11) was 35.2%±3.8%, the enhancement of uptake (hippocampal astrocytes [3]; astrocytes from neonatal rat pups, n=14) was 24.5%±2.4% and the “enhancement of uptake by region” value (hippocampal astrocytes [3]; hippocampal and spinal cord astrocytes) was “significant enhancement of uptake”.
With C=C(C)[C@H]1CN[C@H](C(=O)O)[C@H]1CC(=O)O [KA] the “effect on [Glu]o / glutamate release” value (hippocampal astrocytes [2]) was “ineffective” and the “effect on aspartate uptake” value (hippocampal astrocytes [3]) was “No significant effects”.
For C[n+]1ccc(-c2ccccc2)cc1 [MPP^+, 1-methyl-4-phenylpyridinium], the “extracellular glutamate levels elevated to” value (glial cells) was 7 µM and the “elevations of extracellular glutamate levels” value (glial cells) was “up to 5 fold”.
In the case of CN1CC=C(c2ccccc2)CC1 [MPTP, 1-methyl-4-phenyl-1-1,2,3,6-tetrahydropyridine], the neuronal cell death (dopaminergic neurons) is reported as “wide-spread cell death within less than 24 hours”, the “ability of glial cells to detoxify glutamate” value (glial cells) is reported as “compromised in a dose dependent manner” and the “extracellular glutamate levels elevated to” value (glial cells) is reported as 7 µM. For the same compound, the “elevations of extracellular glutamate levels” value (glial cells) was “up to 5 fold”.
With CN[C@H](CC(=O)O)C(=O)O [NMDA] the “effect on [Glu]o / glutamate release” value (hippocampal astrocytes [2]) was “ineffective” and the “effect on aspartate uptake” value (hippocampal astrocytes [3]) was “No significant effects”.
